In article PMC12118576, “Selective Glycopolymer Inhibitors of Galectin-3: Supportive Anti-Cancer Agents Protecting Monocytes and Preserving Interferon-Gamma Function” (International Journal of Nanomedicine, 2025):
Values joined by “and” are separate entries in the source; they are usually repeats but may differ in a detail not shown here. Equal entries are not always repeated. Where two headings read alike, the source gives them in different places.

Columns and labels:
human Gal-3 = target: T1, human Gal-3 (Homo sapiens, UniProt P17931); assay: Competitive ELISA-type assay: inhibition of Gal-3 binding to immobilized asialofetuin (ASF); details: for Selectivity for Gal-3: IC50 for Gal-1/IC50 for Gal-3
T1 construct: made in house; host or cells: E. coli Rosetta 2(DE3)pLysS
Description: Microtiter plates (Nunc Immuno Sorb, ThermoFisher Scientific, USA) were coated with ASF (0.1 µM in PBS, pH 7.5, 50 µL/well) and incubated overnight. The wells were washed with 3×250 µL of PBS containing 0.05% Tween (repeated after each step). The wells were then blocked by 2% w/v BSA in PBS buffer (250 µL/well) for 1 h. Serial dilutions of the ligands (glycopolymers or oligosaccharides) in EPBS (2 mM EDTA in PBS) were incubated with Gal-1 or Gal-3 (1.25 µM final concentration) for 2 h. The residual bound galectin was labeled with anti-His antibody conjugated to horseradish peroxidase (Santa Cruz; 1:1000 dilution in PBS, 1 h). TMB One substrate solution (Kem-En-Tech, Denmark; 50 µL/well) was added, and the reactions were incubated until visible blue staining appeared (3–20 min). The reaction was stopped by adding 3 M HCl (50 µL per well), resulting in a color shift to yellow, which was determined spectrophotometrically by an absorbance microplate reader (Sunrise Tecan Group Ltd, CH). The intensity of the signal at 450 nm corresponded to the amount of galectin bound to the wells. Non-linear regression (dose–response inhibition-variable slope) of the sigmoidal curves was used to calculate the values of half-maximal inhibitory constants (IC50) from at least six independent experiments using GraphPad Prism 7 (GraphPad Software, USA).
For the affinity measurement, the competitive ELISA assay with ASF as an immobilized competitor ligand was employed.[51] […] The inhibitory potency of the prepared glycopolymers was compared to the respective monovalent standards (LN1-LN2-tBoc, LN2-LN2-tBoc, LDN-LN2-tBoc) to calculate their relative potencies (rp) for inhibition of Gal-3 (Table 1). Relative potency values thus disclose the extent of the so-called multivalency effect of the glycopolymer – the ability of a ligand bound to a multivalent carrier to get easier access and orientation to the lectin-binding site.[52]

J774A.1 macrophages = assay: Gal-3-induced apoptosis of J774A.1 macrophages, Annexin V flow cytometry; format: cell-based, murine; details: 10 µM Gal-3, 24 h, no glycopolymer
Description: For flow cytometry studies, cultured undifferentiated (without any LPS and cytokines) J774A.1 murine macrophages were seeded in a concentration of 10^5 cells/well of the 24-well plate. After 24 h of cultivation, cells were pretreated with the desired concentration of glycopolymers for 5 minutes and afterward treated with 10 μM Gal-3 for 24 h. After harvesting of cells, early and late apoptoses of Gal-3-treated J774A.1 cells in the presence or absence of glycopolymers were evaluated using eBioscience Annexin V apoptosis detection kit (Thermo Fisher Scientific). Flow cytometry was performed using FACS Canto II (BD Biosciences, Franklin Lakes, NJ, USA). Apoptotic half-maximal inhibitory concentrations (IC50) of individual glycopolymers were calculated by nonlinear regression of log(glycopolymer concentration) versus apoptosis response using GraphPad Prism 8 software (version 8.0.1; GraphPad Software, La Jolla, CA, USA).
Tumor-associated macrophages (TAMs) are defined as M1 or M2 subtypes, which differ in their roles in carcinogenesis.[56] Phenotypically M2 macrophages, which are usually more abundant inside tumors and seem to be mainly responsible for the spread of cancer,[57] are chemoattracted into the tumor mass by the Gal-3 gradient.[11] Therefore, we aimed to investigate the inhibitory potential of prepared glycopolymers towards Gal-3 in the context of monocytes and macrophages. […]

[1] = target: T2, recombinant human Gal-3 biotinylated at the lysine of the N-terminal AVI-tag (human, UniProt P17931 1-250, biotin on the lysine of the AVI-tag (…)); assay: depletion from solution by coated magnetic beads, ELISA of the supernatant; biotinylated Gal-3 on Dynabeads M-280 Streptavidin; increasing amount of beads incubated with glycosylated IFNγ, 1 h, room temperature; beads separated, IFNγ left in the supernatant measured by ELISA; details: both partners purified
T2 construct: galectin-3, human; Gal-3-AVI construct in pET-Duet1; Held on streptavidin Dynabeads M-280 through the biotin; also called Gal-3-AVI; biotinylated Gal-3; source: E. coli BL21 (DE3) with birA biotin ligase, purified (Ni-NTA)

[2] = IC50 per glycan, Gal-3 1.25 µM, binding to immobilized ASF, read-out: IC50 [µM]/Glycan

T1 sequence (P17931 whole entry): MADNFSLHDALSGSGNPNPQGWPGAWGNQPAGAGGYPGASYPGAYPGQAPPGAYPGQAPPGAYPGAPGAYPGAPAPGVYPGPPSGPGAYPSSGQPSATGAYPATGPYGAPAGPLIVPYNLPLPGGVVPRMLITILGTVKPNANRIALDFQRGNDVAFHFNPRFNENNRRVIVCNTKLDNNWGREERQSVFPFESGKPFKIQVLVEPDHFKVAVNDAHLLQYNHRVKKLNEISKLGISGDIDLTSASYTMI
T2 sequence (P17931 whole entry): as above

| Molecule | Selectivity for Gal-3 (human Gal-3) | IC50 (human Gal-3; [2]) [µM] | IC50 (human Gal-3; concentration required to inhibit Gal-3 binding to immobilized ASF by 50%, read-out: IC50) [µM] | apoptosis of J774A.1 cells induced by Gal-3 (J774A.1 macrophages) | binding result [1] |
| --- | --- | --- | --- | --- | --- |
| CC(=O)N[C@@H]1[C@@H](O)[C@H](O[C@@H]2O[C@H](CO)[C@H](O)[C@H](O[C@@H]3O[C@H](CO)[C@@H](O)[C@H](O[C@@H]4O[C@H](CO)[C@H](O)[C@H](O)[C@H]4O)[C@H]3NC(C)=O)[C@H]2O)[C@@H](CO)O[C@H]1NC(=S)NCCNC(=O)OC(C)(C)C [Glycopolymer 4, (tert-Butoxycarbonylamino)ethylthioureidyl β-D-Galactopyranosyl-(1→3)-2-Acetamido-2-Deoxy-β-D-Glucopyranosyl-(1→3)-β-D-Galactopyranosyl-(1→4)-2-Acetamido-2-Deoxy-β-D-Glucopyranoside] | 17 | 27.1 ± 4.4 | 27.1 ± 4.4 |  |  |
| CC(=O)N[C@@H]1[C@@H](O)[C@H](O[C@@H]2O[C@H](CO)[C@H](O)[C@H](O[C@@H]3O[C@H](CO)[C@@H](O[C@@H]4O[C@H](CO)[C@H](O)[C@H](O)[C@H]4O)[C@H](O)[C@H]3NC(C)=O)[C@H]2O)[C@@H](CO)O[C@H]1NC(=S)NCCNC(=O)OC(C)(C)C [Glycopolymer 5, (tert-Butoxycarbonylamino)ethylthioureidyl β-D-Galactopyranosyl-(1→4)-2-Acetamido-2-Deoxy-β-D-Glucopyranosyl-(1→3)-β-D-Galactopyranosyl-(1→4)-2-Acetamido-2-Deoxy-β-D-Glucopyranoside] | 10 | 10.2 ± 3.2 |  |  |  |
| CC(=O)N[C@@H]1[C@@H](O)[C@H](O[C@@H]2O[C@H](CO)[C@H](O)[C@H](O[C@@H]3O[C@H](CO)[C@@H](O[C@@H]4O[C@H](CO)[C@H](O)[C@H](O)[C@H]4NC(C)=O)[C@H](O)[C@H]3NC(C)=O)[C@H]2O)[C@@H](CO)O[C@H]1NC(=S)NCCNC(=O)OC(C)(C)C [Glycopolymer 6, (tert-Butoxycarbonylamino)ethylthioureidyl 2-Acetamido-2-Deoxy-β-D-Galactopyranosyl-(1→4)-2-Acetamido-2-Deoxy-β-D-Glucopyranosyl-(1→3)-β-D-Galactopyranosyl-(1→4)-2-Acetamido-2-Deoxy-β-D-Glucopyranoside] | 13 | 7.4 ± 0.5 |  |  |  |
| Gal-3: Recombinant human galectin-3, N-terminal His-tagged protein construct produced in E. coli; used to induce apoptosis |  |  |  | 20.7 ± 0.8% and 15–25% |  |
| glycosylated human IFNγ (natural protein, UniProt P01579 24-161, looked up, glycosylated, interferon-gamma, human, glycosylated; also called interferon-gamma; INFγ; source: bought: Sigma-Aldrich) QDPYVKEAENLKKYFNAGHSDVADNGTLFLGILKNWKEESDRKIMQSQIVSFYFKLFKNFKDDQSIQKSVETIKEDMNVKFFNSNKKKRDDFEKLTNYSVTDLNVQRKAIHELIQVMAELSPAAKTGKRKRSQMLFRG |  |  |  |  | binds |
